Measurements: ChEMBL document CHEMBL1130184, “Effect of a chemical modification on the hydrated adenosine intermediate produced by adenosine deaminase and a model reaction for a potential mechanism of action of 5-aminoimidazole ribonucleotide carboxylase” (J Med Chem, 1997)
One block for each compound: values may come before it.

Key:
[1] = target: T1, Adenosine deaminase (Bos taurus) (UniProt P56658); assay: Inhibitory activity of compound at 25 uM against adenosine deaminase
T1 sequence (whole entry): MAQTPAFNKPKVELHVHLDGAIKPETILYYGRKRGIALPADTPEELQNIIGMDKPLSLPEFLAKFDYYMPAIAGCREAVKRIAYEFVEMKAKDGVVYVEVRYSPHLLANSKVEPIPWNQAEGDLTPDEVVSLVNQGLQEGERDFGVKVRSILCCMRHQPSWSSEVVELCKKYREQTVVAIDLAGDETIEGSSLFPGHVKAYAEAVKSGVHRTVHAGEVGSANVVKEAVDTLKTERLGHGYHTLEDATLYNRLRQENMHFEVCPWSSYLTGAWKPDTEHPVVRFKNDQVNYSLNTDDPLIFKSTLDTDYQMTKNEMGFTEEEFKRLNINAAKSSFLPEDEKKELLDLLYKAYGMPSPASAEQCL

[2] = target: T2, Adenosine deaminase (Bos taurus, UniProt P56658); assay: Apparent binding constant against adenosine deaminase
T2 sequence (P56658 whole entry): T1 sequence (whole entry)

[3] = target: T2, Adenosine deaminase; assay: Inhibitory activity against adenosine deaminase

- inhibition [1]: 15%
Compound: Nc1ncnc2c1ncn2[C@@H]1O[C@H](CO)[C@@H](O)[C@H]1O

- Ki [2]: 40 µM
Compound: O=CNc1cn([C@@H]2O[C@H](CO)[C@@H](O)[C@H]2O)cn1

Compound: Nc1ccnc2c1ncn2[C@@H]1O[C@H](CO)[C@@H](O)[C@H]1O
- Ki [3]: 180 nM
